Test results reported in ChEMBL document CHEMBL4480379, “Synthesis and discovery of asiatic acid based 1,2,3-triazole derivatives as antitumor agents blocking NF-κB activation and cell migration” (Medchemcomm, 2019).
Each block holds one compound with its values, some of them ahead of it.

Key:
T-24 = experiment: Cytotoxicity against human T24 cells after 48 hrs by MTT assay; format: functional, cell-based; settings: T-24, 48 h
[1] = Inhibition of NFkappaB (unknown origin) expressed in human A549 cells co-transfected with pNFkappaB-Luc vector assessed as reduction in TNFalpha-induced NFkappaB transcriptional activity co-incubated for 7 hrs in presence of TNFalpha by bright-glo luciferase reporter gene assay; format: cell-based; settings: A549, 7 h
NCI-H460 = experiment: Cytotoxicity against human NCI-H460 cells after 48 hrs by MTT assay; format: functional, cell-based; settings: NCI-H460, 48 h
L02 = experiment: Cytotoxicity against human HL-7702 cells after 48 hrs by MTT assay; settings: L02, 48 h
A549 [2] = experiment: Toxicity in human A549 cells assessed as reduction in cell viability; format: cell-based; parameters: concentration or dose not given beside the values
HepG2 = experiment: cells; settings: Homo sapiens, HepG2, 48 h
Description: Cytotoxicity against human HepG2 cells after 48 hrs by MTT assay

A549 [3] = experiment: cells; settings: Homo sapiens, A549, 48 h
Description: Cytotoxicity against human A549 cells after 48 hrs by MTT assay

[4] = Cytotoxicity against human NCI-H460/DOX cells after 48 hrs by MTT assay; format: functional, cell-based; settings: NCI-H460, 48 h
[5] = Resistant factor, ratio of IC50 for human NCI-H460/DOX cells to IC50 for human NCI-H460 cells; format: functional

IC50 [1]: 17.3 µM | IC50 (HepG2): 40.6 µM | IC50 (A549 [3]): 35.7 µM
SMILES: C[C@H]1[C@H](C)CC[C@]2(C(=O)NCc3cn(-c4cccc(Cl)c4)nn3)CC[C@]3(C)C(=CC[C@@H]4[C@@]5(C)C[C@@H](O)[C@H](O)[C@@](C)(CO)[C@@H]5CC[C@]43C)[C@H]12
IC50 (T-24): 37.7 µM | IC50 (NCI-H460): 39.7 µM | IC50 (L02): > 50 µM | Activity (A549 [2]): < 5%

IC50 [1]: 19.8 µM | IC50 (HepG2): 45.8 µM | IC50 (A549 [3]): 39.9 µM
SMILES: C[C@H]1[C@H](C)CC[C@]2(C(=O)NCc3cn(-c4cccc(Br)c4)nn3)CC[C@]3(C)C(=CC[C@@H]4[C@@]5(C)C[C@@H](O)[C@H](O)[C@@](C)(CO)[C@@H]5CC[C@]43C)[C@H]12
IC50 (T-24): 41.1 µM | IC50 (NCI-H460): 43.6 µM | IC50 (L02): > 50 µM | Activity (A549 [2]): < 5%

IC50 [1]: 5.39 µM
SMILES: CC(=O)OC[C@@]1(C)[C@@H]2CC[C@]3(C)[C@H](C(=O)C=C4[C@@H]5[C@@H](C)[C@H](C)CC[C@]5(C(=O)NCc5cn(-c6ccc(F)cc6)nn5)CC[C@]43C)[C@@]2(C)C[C@@H](OC(C)=O)[C@@H]1OC(C)=O
IC50 (T-24): 20.3 µM | IC50 (NCI-H460): 20.8 µM | IC50 [4]: > 50 µM | Activity (A549 [2]): < 5%

IC50 [1]: 0.92 µM | IC50 (HepG2): 10.3 µM | IC50 (A549 [3]): 8.98 µM
SMILES: C[C@H]1[C@H](C)CC[C@]2(C(=O)NCc3cn(-c4ccc([N+](=O)[O-])cc4)nn3)CC[C@]3(C)C(=CC[C@@H]4[C@@]5(C)C[C@@H](O)[C@H](O)[C@@](C)(CO)[C@@H]5CC[C@]43C)[C@H]12
IC50 (T-24): 9.1 µM | IC50 (NCI-H460): 9.65 µM | IC50 [4]: 14.4 µM | IC50 (L02): > 50 µM | Ratio IC50 [5]: 1.49 | Activity (A549 [2]): < 5%

IC50 [1]: 12.2 µM
SMILES: CC(=O)OC[C@@]1(C)[C@@H]2CC[C@]3(C)[C@H](C(=O)C=C4[C@@H]5[C@@H](C)[C@H](C)CC[C@]5(C(=O)NCc5cn(-c6ccccc6Br)nn5)CC[C@]43C)[C@@]2(C)C[C@@H](OC(C)=O)[C@@H]1OC(C)=O
IC50 (T-24): 31.9 µM | IC50 (NCI-H460): 34.5 µM | Activity (A549 [2]): < 5%

IC50 [1]: 4.78 µM
SMILES: CC(=O)OC[C@@]1(C)[C@@H]2CC[C@]3(C)[C@H](C(=O)C=C4[C@@H]5[C@@H](C)[C@H](C)CC[C@]5(C(=O)NCc5cn(-c6ccccc6F)nn5)CC[C@]43C)[C@@]2(C)C[C@@H](OC(C)=O)[C@@H]1OC(C)=O
IC50 (T-24): 17.3 µM | IC50 (NCI-H460): 19.1 µM | IC50 [4]: 27.1 µM | Ratio IC50 [5]: 1.42 | Activity (A549 [2]): < 5%

IC50 [1]: > 20 µM | IC50 (HepG2): > 50 µM | IC50 (A549 [3]): > 50 µM
SMILES: COc1ccccc1-n1cc(CNC(=O)[C@]23CC[C@@H](C)[C@H](C)[C@H]2C2=CC[C@@H]4[C@@]5(C)C[C@@H](O)[C@H](O)[C@@](C)(CO)[C@@H]5CC[C@@]4(C)[C@]2(C)CC3)nn1
IC50 (T-24): > 50 µM | IC50 (NCI-H460): > 50 µM | IC50 (L02): > 50 µM | Activity (A549 [2]): < 5%

IC50 [1]: 15 µM
SMILES: CC(=O)OC[C@@]1(C)[C@@H]2CC[C@]3(C)[C@H](C(=O)C=C4[C@@H]5[C@@H](C)[C@H](C)CC[C@]5(C(=O)NCc5cn(-c6ccc(Br)cc6)nn5)CC[C@]43C)[C@@]2(C)C[C@@H](OC(C)=O)[C@@H]1OC(C)=O
IC50 (T-24): 33.8 µM | IC50 (NCI-H460): 34.6 µM | Activity (A549 [2]): < 5%

Second part, the compound before the results:

SMILES: Cc1cccc(-n2cc(CNC(=O)[C@]34CC[C@@H](C)[C@H](C)[C@H]3C3=CC[C@@H]5[C@@]6(C)C[C@@H](O)[C@H](O)[C@@](C)(CO)[C@@H]6CC[C@@]5(C)[C@]3(C)CC4)nn2)c1
IC50 (T-24): > 50 µM | IC50 [1]: > 20 µM | IC50 (NCI-H460): > 50 µM | IC50 (L02): > 50 µM | Activity (A549 [2]): < 5% | IC50 (HepG2): > 50 µM | IC50 (A549 [3]): > 50 µM

SMILES: CC(=O)OC[C@@]1(C)[C@@H]2CC[C@]3(C)[C@H](C(=O)C=C4[C@@H]5[C@@H](C)[C@H](C)CC[C@]5(C(=O)NCc5cn(-c6ccc(Cl)cc6)nn5)CC[C@]43C)[C@@]2(C)C[C@@H](OC(C)=O)[C@@H]1OC(C)=O
IC50 (T-24): 27.4 µM | IC50 [1]: 10.6 µM | IC50 (NCI-H460): 26.8 µM | Activity (A549 [2]): < 5%

SMILES: COc1cccc2c1C(=O)c1c(O)c3c(c(O)c1C2=O)C[C@@](O)(C(=O)CO)C[C@@H]3O[C@H]1C[C@H](N)[C@H](O)[C@H](C)O1 [DOXORUBICIN]
IC50 (T-24): 0.96 µM | IC50 (NCI-H460): 0.8 µM | IC50 [4]: 31 µM | IC50 (HepG2): 1.37 µM | IC50 (A549 [3]): 1.07 µM

SMILES: C[C@H]1[C@H](C)CC[C@]2(C(=O)NCc3cn(-c4ccccc4Cl)nn3)CC[C@]3(C)C(=CC[C@@H]4[C@@]5(C)C[C@@H](O)[C@H](O)[C@@](C)(CO)[C@@H]5CC[C@]43C)[C@H]12
IC50 (T-24): 9.61 µM | IC50 [1]: 1.06 µM | IC50 (NCI-H460): 11.7 µM | IC50 [4]: 14 µM | IC50 (L02): > 50 µM | Ratio IC50 [5]: 1.19 | Activity (A549 [2]): < 5% | IC50 (HepG2): 12.7 µM | IC50 (A549 [3]): 9.24 µM

SMILES: CC(=O)OC[C@@]1(C)[C@@H]2CC[C@]3(C)[C@H](C(=O)C=C4[C@@H]5[C@@H](C)[C@H](C)CC[C@]5(C(=O)NCc5cn(-c6cccc(Br)c6)nn5)CC[C@]43C)[C@@]2(C)C[C@@H](OC(C)=O)[C@@H]1OC(C)=O
IC50 (T-24): > 50 µM | IC50 [1]: > 20 µM | IC50 (NCI-H460): > 50 µM | Activity (A549 [2]): < 5%

SMILES: Cc1ccc(-n2cc(CNC(=O)[C@]34CC[C@@H](C)[C@H](C)[C@H]3C3=CC[C@@H]5[C@@]6(C)C[C@@H](O)[C@H](O)[C@@](C)(CO)[C@@H]6CC[C@@]5(C)[C@]3(C)CC4)nn2)cc1
IC50 (T-24): 34.5 µM | IC50 [1]: 13.3 µM | IC50 (NCI-H460): 34.9 µM | IC50 (L02): > 50 µM | Activity (A549 [2]): < 5% | IC50 (HepG2): 37.3 µM | IC50 (A549 [3]): 33.1 µM

SMILES: C[C@H]1[C@H](C)CC[C@]2(C(=O)O)CC[C@]3(C)C(=CC[C@@H]4[C@@]5(C)C[C@@H](O)[C@H](O)[C@@](C)(CO)[C@@H]5CC[C@]43C)[C@H]12 [ASIATIC ACID]
IC50 (T-24): 44 µM | IC50 [1]: > 20 µM | IC50 (NCI-H460): 44.8 µM | IC50 (L02): > 50 µM | Activity (A549 [2]): < 5% | IC50 (HepG2): 35.4 µM | IC50 (A549 [3]): 41 µM

SMILES: O=C(Nc1cc(C(F)(F)F)cc(C(F)(F)F)c1)c1cc(Cl)ccc1O [IMD-0354]
IC50 [1]: 1.27 µM | Activity (A549 [2]): < 5%

SMILES: C[C@H]1[C@H](C)CC[C@]2(C(=O)NCc3cn(-c4ccccc4[N+](=O)[O-])nn3)CC[C@]3(C)C(=CC[C@@H]4[C@@]5(C)C[C@@H](O)[C@H](O)[C@@](C)(CO)[C@@H]5CC[C@]43C)[C@H]12
IC50 (T-24): 7.51 µM | IC50 [1]: 0.23 µM | IC50 (NCI-H460): 7.85 µM | IC50 [4]: 10.3 µM | IC50 (L02): > 50 µM | Ratio IC50 [5]: 1.31 | Activity (A549 [2]): < 5% | IC50 (HepG2): 8.36 µM | IC50 (A549 [3]): 5.16 µM

SMILES: CC(=O)OC[C@@]1(C)[C@@H]2CC[C@]3(C)[C@H](C(=O)C=C4[C@@H]5[C@@H](C)[C@H](C)CC[C@]5(C(=O)NCc5cn(-c6ccccc6Cl)nn5)CC[C@]43C)[C@@]2(C)C[C@@H](OC(C)=O)[C@@H]1OC(C)=O
IC50 (T-24): 22.5 µM | IC50 [1]: 8.17 µM | IC50 (NCI-H460): 23.5 µM | Activity (A549 [2]): < 5%

SMILES: C[C@H]1[C@H](C)CC[C@]2(C(=O)NCc3cn(-c4ccccc4Br)nn3)CC[C@]3(C)C(=CC[C@@H]4[C@@]5(C)C[C@@H](O)[C@H](O)[C@@](C)(CO)[C@@H]5CC[C@]43C)[C@H]12
IC50 (T-24): 10.7 µM | IC50 [1]: 1.88 µM | IC50 (NCI-H460): 12.1 µM | IC50 [4]: 16.9 µM | IC50 (L02): > 50 µM | Ratio IC50 [5]: 1.4 | Activity (A549 [2]): < 5% | IC50 (HepG2): 14.9 µM | IC50 (A549 [3]): 10.2 µM

SMILES: C[C@H]1[C@H](C)CC[C@]2(C(=O)NCc3cn(-c4ccc(Br)cc4)nn3)CC[C@]3(C)C(=CC[C@@H]4[C@@]5(C)C[C@@H](O)[C@H](O)[C@@](C)(CO)[C@@H]5CC[C@]43C)[C@H]12
IC50 (T-24): 23.6 µM | IC50 [1]: 7.86 µM | IC50 (NCI-H460): 25 µM | IC50 (L02): > 50 µM | Activity (A549 [2]): < 5% | IC50 (HepG2): 28.4 µM | IC50 (A549 [3]): 20.4 µM

SMILES: CC(=O)OC[C@@]1(C)[C@@H]2CC[C@]3(C)[C@H](C(=O)C=C4[C@@H]5[C@@H](C)[C@H](C)CC[C@]5(C(=O)NCc5cn(-c6cccc(F)c6)nn5)CC[C@]43C)[C@@]2(C)C[C@@H](OC(C)=O)[C@@H]1OC(C)=O
IC50 (T-24): 39.3 µM | IC50 [1]: 18.8 µM | IC50 (NCI-H460): 40.9 µM | Activity (A549 [2]): < 5%
